Assay results as given in ChEMBL document CHEMBL1201862, “PubChem BioAssay data set” (2004).
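Tested at 5 concentrations; 48 h exposure; 96-well plates; endpoints linearly interpolated, else capped at highest concentration. GI50 = concentration required for 50% inhibition of growth.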 Active and inactive are the calls of the source. No stated cut-off is given here; in the data, active = GI50 up to about 1.1 µM and inactive = higher.

Legend:
Assay in all cases: inhibition of tumour cell growth, NCI panel, 48 h
IGROV-1 = tested on: IGROV-1
MOLT-4 = tested on: MOLT-4
UACC-257 = tested on: UACC-257
SF-539 = tested on: SF-539
CCRF-CEM = tested on: CCRF-CEM
SW-620 = tested on: SW-620
PC-3 = tested on: PC-3
K562 = tested on: K562
LOX IMVI = tested on: LOX IMVI
ACHN = tested on: ACHN
HOP-92 = tested on: HOP-92
OVCAR-4 = tested on: OVCAR-4
A549 = tested on: A549
SK-MEL-5 = tested on: SK-MEL-5
OVCAR-5 = tested on: OVCAR-5
OVCAR-8 = tested on: OVCAR-8
MDA-N = tested on: MDA-N
HL-60 = tested on: HL-60
MCF7 = tested on: MCF7
Malme-3M = tested on: Malme-3M
RXF 393 = tested on: RXF 393
SNB-75 = tested on: SNB-75
HCT-15 = tested on: HCT-15
KM12 = tested on: KM12
MDA-MB-435 = tested on: MDA-MB-435
A498 = tested on: A498
SNB-19 = tested on: SNB-19
UACC-62 = tested on: UACC-62
TK-10 = tested on: TK-10
SF-295 = tested on: SF-295
CAKI-1 = tested on: CAKI-1
NCI-H226 = tested on: NCI-H226
SF-268 = tested on: SF-268
Hs-578T = tested on: Hs-578T
786-0 = tested on: 786-0
NCI-H522 = tested on: NCI-H522
U-251 = tested on: U-251
T47D = tested on: T47D
HOP-62 = tested on: HOP-62
COLO 205 = tested on: COLO 205
SK-MEL-28 = tested on: SK-MEL-28
M14 = tested on: M14
HCT-116 = tested on: HCT-116
NCI-H460 = tested on: NCI-H460
HT-29 = tested on: HT-29
SK-MEL-2 = tested on: SK-MEL-2
NCI/ADR-RES = tested on: NCI/ADR-RES
SN12C = tested on: SN12C
NCI-H23 = tested on: NCI-H23
DU-145 = tested on: DU-145
SK-OV-3 = tested on: SK-OV-3
SR = tested on: SR
BT-549 = tested on: BT-549
RPMI-8226 = tested on: RPMI-8226
EKVX = tested on: EKVX
MDA-MB-231 = tested on: MDA-MB-231
OVCAR-3 = tested on: OVCAR-3
UO-31 = tested on: UO-31
HCC 2998 = tested on: HCC 2998

With `COc1ccc(C(=O)N/N=C2\C(=O)c3c(C)cc(C)cc3CC2(C)C)cc1` the GI50 (IGROV-1) was 16.1 µM (inactive), the GI50 (MOLT-4) was 11.5 µM (inactive) and the GI50 (UACC-257) was 29.8 µM (inactive). For the same compound, the GI50 (SF-539) was 20.5 µM (inactive), the GI50 (CCRF-CEM) was 24.3 µM (inactive) and the GI50 (SW-620) was 20.8 µM (inactive). For the same compound, the GI50 (PC-3) was 22.2 µM (inactive), the GI50 (K562) was 16.7 µM (inactive) and the GI50 (LOX IMVI) was 17.7 µM (inactive). The GI50 (ACHN) was 24.1 µM (inactive), the GI50 (HOP-92) was 14.9 µM (inactive) and the GI50 (OVCAR-4) was 27 µM (inactive). For the same compound, the GI50 (A549) was 19.4 µM (inactive), the GI50 (SK-MEL-5) was 16.7 µM (inactive) and the GI50 (OVCAR-5) was 21 µM (inactive). For the same compound, the GI50 (OVCAR-8) was 20.9 µM (inactive), the GI50 (MDA-N) was 19.3 µM (inactive) and the GI50 (HL-60) was 18.3 µM (inactive). For the same compound, the GI50 (MCF7) was 16.6 µM (inactive), the GI50 (Malme-3M) was 14.9 µM (inactive) and the GI50 (RXF 393) was 16.6 µM (inactive). The GI50 (SNB-75) was 21.4 µM (inactive), the GI50 (HCT-15) was 22.8 µM and the GI50 (KM12) was 19.1 µM (inactive). For the same compound, the GI50 (MDA-MB-435) was 17.9 µM (inactive), the GI50 (A498) was 19.9 µM (inactive) and the GI50 (SNB-19) was 27.4 µM (inactive). For the same compound, the GI50 (UACC-62) was 15.1 µM (inactive), the GI50 (TK-10) was 54.2 µM (inactive) and the GI50 (SF-295) was 19.6 µM (inactive). The GI50 (CAKI-1) was 36 µM (inactive), the GI50 (NCI-H226) was 22.3 µM (inactive) and the GI50 (SF-268) was 17.3 µM (inactive). For the same compound, the GI50 (Hs-578T) was 16.3 µM (inactive), the GI50 (786-0) was 18.6 µM (inactive) and the GI50 (NCI-H522) was 15.3 µM (inactive). The GI50 (U-251) was 17.1 µM (inactive), the GI50 (T47D) was 13.7 µM (inactive) and the GI50 (HOP-62) was 18 µM (inactive). The GI50 (COLO 205) was 21.8 µM (inactive), the GI50 (SK-MEL-28) was 19.7 µM (inactive) and the GI50 (M14) was 19.8 µM (inactive). The GI50 (HCT-116) was 17.1 µM (inactive), the GI50 (NCI-H460) was 25.6 µM (inactive) and the GI50 (HT-29) was 18.4 µM (inactive). The GI50 (SK-MEL-2) was 18.9 µM (inactive), the GI50 (NCI/ADR-RES) was 22 µM (inactive) and the GI50 (SN12C) was 18.4 µM (inactive). The GI50 (NCI-H23) was 29.5 µM (inactive), the GI50 (DU-145) was 24.2 µM (inactive) and the GI50 (SK-OV-3) was 29.2 µM (inactive). For the same compound, the GI50 (SR) was 18.5 µM (inactive), the GI50 (BT-549) was 18.6 µM (inactive) and the GI50 (RPMI-8226) was 17.1 µM (inactive). For the same compound, the GI50 (EKVX) was 22.5 µM (inactive), the GI50 (MDA-MB-231) was 19.7 µM (inactive) and the GI50 (OVCAR-3) was 15.6 µM (inactive).
For `COc1ccc2c(c1)CCN=C2Cc1cc(OC)c(OC)cc1CCCl`, the GI50 (IGROV-1) was 52.4 µM (inactive), the GI50 (MOLT-4) was 54.8 µM (inactive) and the GI50 (UACC-257) was 45.4 µM (inactive). The GI50 (SF-539) was 16.2 µM (inactive), the GI50 (CCRF-CEM) was > 100 µM (inactive) and the GI50 (SW-620) was > 100 µM (inactive). The GI50 (PC-3) was 48 µM (inactive), the GI50 (K562) was 81.1 µM (inactive) and the GI50 (LOX IMVI) was 31.9 µM (inactive). For the same compound, the GI50 (ACHN) was 57 µM (inactive), the GI50 (HOP-92) was 11.1 µM (inactive) and the GI50 (OVCAR-4) was > 100 µM (inactive). The GI50 (A549) was 96.4 µM (inactive), the GI50 (UO-31) was 29.2 µM (inactive) and the GI50 (SK-MEL-5) was 17.5 µM (inactive). The GI50 (OVCAR-5) was 17.3 µM (inactive), the GI50 (OVCAR-8) was > 100 µM (inactive) and the GI50 (MDA-N) was 53.8 µM (inactive). For the same compound, the GI50 (MCF7) was 52.2 µM (inactive), the GI50 (Malme-3M) was 27.4 µM (inactive) and the GI50 (RXF 393) was 24.9 µM (inactive). The GI50 (SNB-75) was > 100 µM (inactive), the GI50 (KM12) was 33.3 µM (inactive) and the GI50 (MDA-MB-435) was 52 µM (inactive). For the same compound, the GI50 (SNB-19) was 97.1 µM (inactive), the GI50 (UACC-62) was 53.8 µM (inactive) and the GI50 (TK-10) was 35.7 µM (inactive). For the same compound, the GI50 (SF-295) was 30.9 µM (inactive), the GI50 (CAKI-1) was > 100 µM (inactive) and the GI50 (NCI-H226) was 64.6 µM (inactive). The GI50 (HCC 2998) was 30.5 µM (inactive), the GI50 (SF-268) was 48.6 µM (inactive) and the GI50 (Hs-578T) was 22.1 µM (inactive). For the same compound, the GI50 (NCI-H522) was 21.7 µM (inactive), the GI50 (U-251) was 86.7 µM (inactive) and the GI50 (T47D) was 53.1 µM (inactive). For the same compound, the GI50 (HOP-62) was 3.08 µM (inactive), the GI50 (COLO 205) was 58.7 µM (inactive) and the GI50 (SK-MEL-28) was 66.2 µM (inactive). The GI50 (M14) was 21.2 µM (inactive), the GI50 (HCT-116) was 44.5 µM (inactive) and the GI50 (NCI-H460) was 69.8 µM (inactive). The GI50 (HT-29) was 26.9 µM (inactive), the GI50 (SK-MEL-2) was > 100 µM (inactive) and the GI50 (NCI/ADR-RES) was > 100 µM (inactive). The GI50 (SN12C) was 48.4 µM (inactive), the GI50 (NCI-H23) was 52 µM (inactive) and the GI50 (DU-145) was > 100 µM (inactive). The GI50 (SK-OV-3) was > 100 µM (inactive), the GI50 (SR) was 94.6 µM (inactive) and the GI50 (BT-549) was > 100 µM (inactive). The GI50 (RPMI-8226) was 55 µM (inactive), the GI50 (EKVX) was > 100 µM (inactive) and the GI50 (MDA-MB-231) was 32.1 µM (inactive). For the same compound, the GI50 (OVCAR-3) was 22.7 µM (inactive).
